pIC50: −log10 of the molar value.
Legend:
[1] = test system: LtP, axenic Leishmania tarentolae amastigotes and Leishmania donovani promastigotes; design: method as in PMID 29996524; conditions: read-out: IC50 in viability tests; cited from earlier work
J774 macrophages = test: Resazurin viability assay for J774 macrophages; assay type: cell-based, murine; conditions: Mus musculus, J774, 48 h, read-out: J774 IC50, resazurin viability, endpoint 48 h, 10^5 J774 cells/mL, mean ± SD of 4–8 experiments
Protocol: (§1) The influence of AcEP and their analogs (Ac) on the viability of cells was tested in Leishmania tarentolae promastigotes (LtP) and J774 macrophages (Table 2). Based on the changes of viability of the respective cell lines at different compound concentrations, IC50 values were calculated. In Table 2, the IC50 values in both cell lines were compared for the individual compounds. From the ratio of IC50 values in J774 macrophages to IC50 values in LtP, an in vitro selectivity was calculated.
The murine macrophage cell line J774A.1 (ATCC, TIB-67™, Wesel, Germany) was cultivated up to passage 30 in DMEM (high glucose, 3.7 g/L NaHCO3, pH 7.4) with 25,000 IU/L penicillin, 25 mg/L streptomycin, and 10% FCS (heat-inactivated) in 50 mL TubeSpin bioreactors. J774 cells were incubated at 37 °C and 5% CO2 on a roller culture apparatus (5 rpm) in a Heraeus Cytoperm 8080 incubator (Thermo Electron Corp., Vienna, Austria). To determine the cell count, the cell suspension was re-suspended and diluted 1:2 with phosphate-buffered saline (PBS): 137 mM NaCl, 1.4 mM KH2PO4, 4.3 mM Na2HPO4, and 2.7 mM KCl, pH 7.4. After fixation of the cells by mixing the cell suspension 1:1 with a formaldehyde solution (2%, v/v), aliquots of the resulting suspension were transferred into a standard Neubauer chamber (VWR, Austria) and counted manually using a light microscope (Motic BA310, Vienna, Austria) at a magnification of 40 times. J774 cells were passaged twice a week in a ratio of 1:10.
DMEM containing 25,000 U/L penicillin, 25 mg/L streptomycin, 10% FCS, and 1 × 10^5 J774/mL was prepared. This mixture (200 µL) was distributed in cell culture-treated 96-well plates, except the control wells which contained only DMEM. The cells were incubated for 24 h at 37 °C and 5% CO2 to allow attachment. Afterwards the medium and non-adherent cells were removed by washing with PBS, and then, 200 µL DMEM was added to attached cells. Compounds dissolved in DMSO were added in starting concentrations of 25 µM (Pen) or 200 µM (AcEP/Ac), and then, serial dilutions were carried out resulting in the same concentration steps as listed for LtP. For each compound concentration triplicates on each plate were performed. […], 50 µL of resazurin solution (final concentration 20 µM) was added, and after 4 h of incubation, the fluorescence was measured at 560 nm excitation and 590 nm emission using a plate reader (Perkin Elmer EnSpire, Rodgau, Germany). All tests were repeated at least on four different weeks of cultivation.
(§2) Calculations were carried out using Microsoft Excel 2016 (Microsoft). The graphs were created using Origin 6.1 (OriginLab Corporation, Northampton, MA, USA). For all groups of experimental data, mean and standard deviation (SD) were calculated. Statistically significant differences between groups of sample data were identified by unpaired two-tailed Student’s t-test. Differences on the level of p < 0.05 were considered significant. The number of replicates is indicated at the respective figures/tables. The half-maximal inhibitory concentrations (IC50) were determined from non-linear concentration-response curves using a four-parameter logistic model and expressed as the mean ± SD.

[2] = test system: Leishmania tarentolae promastigotes (LtP); test: Resazurin viability assay for LtP; assay type: cell-based; conditions: Leishmania tarentolae, 48 h, read-out: LtP IC50
Protocol: as §1
LtP (strain P10 from Jena Bioscience, Jena, Germany) were cultivated according to manufacturer instructions up to passage 50 in brain heart infusion medium (37 g/L, pH 7.4) and supplemented with 5 mg/L hemin and 25,000 IU/L penicillin and 25 mg/L streptomycin in 50 mL TubeSpin bioreactors (TPP, Trasadingen. Switzerland). LtP were grown at 27 °C in an incubator (Ehret, Emmendingen, Germany) and agitated at a frequency of 0.05 s^−1. […] For experiments, LtP were used one day after passage. The cell number was calculated by measuring the optical density (OD) of the culture at 600 nm with a U-1100 photometer (Hitachi Ltd., Tokyo, Japan) and applying the formula × 10^6 cells/mL = OD600nm × 0.969 × 124 × dilution factor [53].
Assay medium of YEM (20.7 g/L yeast extract powder, 1.2 g/L K2HPO4, 0.2 g/L KH2PO4, 2.9 g/L glucose, pH 7.4) and PBS (1:1, v/v), 25,000 U/L penicillin, 25 mg/L streptomycin, and 7.7 µM hemin was prepared. Aliquots of 200 µL of this medium and 2 × 10^6 LtP/mL (where required) were distributed in non-treated cell culture 96-well plates. Compounds (dissolved in DMSO) were added with starting concentrations of 25 µM (Pen) or 200 µM (AcEP/Ac), and then, serial dilutions were carried out resulting in a set of concentrations (25, 5, 1, 0.2, 0.04, and 0.008 µM) or (200, 40, 8, 1.6, 0.32, and 0.064 µM). For each compound concentration, at least triplicates on each plate were performed. After incubation of the plates at 27 °C for 48 h, 50 µL of resazurin solution (final concentration in wells 20 µM) was added to each well and after 4 h of incubation, the fluorescence was measured at 560 nm excitation and 590 nm emission using a plate reader (Perkin Elmer EnSpire, Rodgau, Germany) (adapted from). Combination assays for viability in the presence of PIH and NAC were performed the same way. […] All tests were repeated at least on four different weeks of cultivation.
as §2

| SMILES | pIC50 [1] | pIC50 (J774 macrophages) | pIC50 [2] |
| --- | --- | --- | --- |
| O=C1c2ccccc2C(=O)c2ccccc21 [anthraquinone, reference compound] | < 4.00 |  |  |
| c1ccc2cc3ccccc3cc2c1 [Ac, anthracene] | < 4.00 | < 3.70 | < 3.70 |

Source: publication PMC9612231, “Antileishmanial Anthracene Endoperoxides: Efficacy In Vitro, Mechanisms and Structure-Activity Relationships” (Molecules, 2022)
